Test results: US12427134B2, “Methods of reducing the risk of cardiovascular events in a subject with atrial fibrillation and/or atrial flutter” (priority 2019, dated 2025)

System: hypertriglyceridemic patients with cardiovascular disease or at high risk for cardiovascular disease
Assay: REDUCE-IT: treatment-emergent adverse events and serious adverse events (safety population)
Description: Specification of Variables and Procedures: Safety assessments included adverse events, clinical laboratory measurements (chemistry, hematology), 12-lead ECGs, vital signs (systolic and diastolic blood pressure, heart rate, respiratory rate, and body temperature), weight, waist circumference, and physical examinations as per Study Procedures in Table 1. […] All laboratory test results were evaluated by the investigator as to their clinical significance. Any observations at physical examinations or laboratory values considered by the investigator to be clinically significant were considered an adverse event.
An adverse event can therefore be any unfavorable and/or unintended sign (including an abnormal laboratory finding), symptom, or disease temporally associated with the use of an investigational medication product, whether or not related to the investigational medication product. All adverse events, including observed or volunteered problems, complaints, or symptoms, were recorded on the appropriate CRF. Each adverse event was evaluated for duration, intensity, and causal relationship with the study medication or other factors.
Adverse events, which included clinical laboratory test variables, were monitored from the time of informed consent until study participation was complete. Patients were instructed to report any adverse event that they experienced to the investigator. Beginning with Visit 2, investigators assessed for adverse events at each visit and recorded the event on the appropriate adverse event CRF.
Causality Assessment: The relationship of an adverse event to the administration of the study drug was assessed according to the following definitions: • No (unrelated, not related, no relation)—The time course between the administration of study drug and the occurrence or worsening of the adverse event rules out a causal relationship and another cause (concomitant drugs, therapies, complications, etc.) is suspected. • Yes (related, probably related, possibly related)—The time course between the administration of study drug and the occurrence or worsening of the adverse event is consistent with a causal relationship and no other cause (concomitant drugs, therapies, complications, etc.) can be identified.
Serious Adverse Events: A serious adverse event (SAE) is defined as an adverse event that meets any of the following criteria: • Results in death; • Is life-threatening—The term “life-threatening” in the definition of “serious” refers to an event in which the patient was at risk of death at the time of the event. […] Important medical events that may not result in death, be life threatening, or require hospitalization were considered an SAE when, based upon appropriate medical judgment, they may have jeopardized the patient and may have required medical or surgical intervention to prevent one of the outcomes listed above.
Analysis of Safety: All analyses of safety were conducted on the safety population, which was defined as all randomized patients. The safety assessment was based on the frequency of adverse events, physical exams, vital signs and safety laboratory tests. AEs with new onset during the study between the initiation of study drug and 30 days after the last dose of study drug for each patient was considered treatment-emergent (TEAEs). This included any AE with onset prior to initiation of study drug and increased severity after the treatment initiation.
This included overall incidence rates (regardless of severity and relationship to study drug), and incidence rates for moderate or severe adverse events. A summary of SAEs and adverse events leading to early discontinuation (for ≥30 days) were presented through data listings. Patients who restarted study drug were included in the summary of AEs leading to discontinuation.

CC/C=C\C/C=C\C/C=C\C/C=C\C/C=C\CCCC(=O)OCC [AMR101, eicosapentaenoic acid ethyl ester]
TEAE: Respiratory, thoracic, and mediastinal disorders, % (Region Westernized (N = 2906)): (30.9) % | Diarrhea leading to study drug withdrawal, patients (Safety population): 1.1% | Nausea leading to study drug withdrawal, patients (Safety population): 0.6% | Patients with SAE leading to study drug withdrawal (Safety population): 2.2% | Patients with TEAE leading to study drug withdrawal (Safety population): 7.9% | Patients with at least one SAE (Safety population): 30.6% | Patients with at least one TEAE (Safety population): 81.8% | Patients with serious TEAE leading to death (Safety population): 2.3% | SAE acute kidney injury, patients (Safety population): 1.1 | SAE angina pectoris, patients (Safety population): 1.2% | SAE chest pain, patients (Safety population): 1.6% | SAE class GI disorders, patients (Safety population): 4.7% | SAE class cardiac disorders, patients (Safety population): 4.7% | SAE class musculoskeletal and connective tissue disorders, patients (Safety population): 4.6% | SAE class neoplasms benign, malignant, and unspecified, patients (Safety population): 5.4% | SAE non-cardiac chest pain, patients (Safety population): 1.2% | SAE osteoarthritis, patients (Safety population): 2.0% | Serious TEAE (Safety population): 1252 (30.6%) n (%) | Serious TEAE Leading to Death (Safety population): 94 (2.3%) n (%) | Serious TEAE Leading to Withdrawal of Study Drug (Safety population): 88 (2.2%) n (%) | Serious TEAE: Pneumonia (Safety population): 105 (2.6%) n (%) | Serious adverse event pneumonia, patients (Safety population): 2.6% | Serious anemia, patients (Safety population): 0.5% | Severe TEAE acute kidney injury, patients (Safety population): 0.7% | Severe TEAE chest pain, patients (Safety population): 0.7% | Severe TEAE osteoarthritis, patients (Safety population): 0.8% | Severe TEAE pneumonia, patients (Safety population): 1.5% | Severe TEAE, patients with at least one (Safety population): 19.7% | Study drug-related SAE, patients with at least one (Safety population): 0.2% | Study drug-related TEAE class GI disorders, patients (Safety population): 7.4% | Study drug-related TEAE diarrhea, patients (Safety population): 2.7% | Study drug-related TEAE leading to study drug withdrawal, patients (Safety population): 3.4% | Study drug-related TEAE, patients with at least one (Safety population): 12.6% | Study drug-related diarrhea leading to study drug withdrawal, patients (Safety population): 1.0% | TEAE Leading to Withdrawal of Study Drug (Safety population): 321 (7.9%) n (%) | TEAE anemia, patients (Safety population): 4.7% | TEAE atrial fibrillation, patients (Safety population): 5.3% | TEAE class GI disorders leading to study drug withdrawal, patients (Safety population): 3.6% | TEAE class general disorders and administration site conditions, patients (Safety population): 25.2% | TEAE class musculoskeletal and connective tissue disorders, patients (Safety population): 35.9% | TEAE class nervous system disorders, patients (Safety population): 24.6% | TEAE constipation, patients (Safety population): 5.4% | TEAE diarrhea, patients (Safety population): 9% | TEAE gastrointestinal disorders, patients (Safety population): 33.0% | TEAE of special interest: abnormal glucose control, patients (Safety population): 15.2% | TEAE of special interest: hepatic disorders, patients (Safety population): 5.4% | TEAE peripheral edema, patients (Safety population): 6.5% | TEAE: Anemia (Safety population): 191 (4.7%) n (%) | TEAE: Angina pectoris (Safety population): 200 (4.9%) n (%) | TEAE: Arthralgia (Safety population): 313 (7.7%) n (%) | TEAE: Atrial fibrillation (Safety population): 215 (5.3%) n (%) | TEAE: Back pain (Safety population): 335 (8.2%) n (%) | TEAE: Bronchitis (Safety population): 306 (7.5%) n (%) | TEAE: Cataract (Safety population): 233 (5.7%) n (%) | TEAE: Chest pain (Safety population): 273 (6.7%) n (%) | TEAE: Constipation (Safety population): 221 (5.4%) n (%) | TEAE: Cough (Safety population): 241 (5.9%) n (%) | TEAE: Diarrhea (Safety population): 367 (9.0%) n (%) | TEAE: Dizziness (Safety population): 235 (5.7%) n (%) | TEAE: Dyspnea (Safety population): 254 (6.2%) n (%) | TEAE: Fatigue (Safety population): 228 (5.6%) n (%) | TEAE: Gastroesophageal Reflux Disease (Safety population): 124 (3.0%) n (%) | TEAE: Gastrointestinal disorders (Safety population): 1350 (33.0%) n (%) | TEAE: Hypertension (Safety population): 320 (7.8%) n (%) | TEAE: Influenza (Safety population): 263 (6.4%) n (%) | TEAE: Nasopharyngitis (Safety population): 314 (7.7%) n (%) | TEAE: Nausea (Safety population): 190 (4.6%) n (%) | TEAE: Osteoarthritis (Safety population): 241 (5.9%) n (%) | TEAE: Pain in extremity (Safety population): 235 (5.7%) n (%) | TEAE: Peripheral edema (Safety population): 267 (6.5%) n (%) | TEAE: Pneumonia (Safety population): 263 (6.4%) n (%) | TEAE: Upper respiratory tract infection (Safety population): 312 (7.6%) n (%) | TEAE: Urinary tract infection (Safety population): 253 (6.2%) n (%) | TEAE of special interest: Hepatic disorders, % (Safety population N = 4089, P-value 0.3180): (5.4) % | TEAE of special interest: Abnormal glucose control, % (Safety population N = 4089, P-value 0.8059): (15.2) % | CEC-adjudicated CV deaths (excluding deaths with undetermined cause), % (Safety population, N = 4089): (3.4) % | CEC-adjudicated Deaths with undetermined cause, % (Safety population, N = 4089): (0.9) % | CEC-adjudicated Non-CV deaths, % (Safety population, N = 4089): (2.4) % | CEC-adjudicated deaths: Total mortality, % (Safety population, N = 4089): (6.7) % | Patients with at least 1 TEAE, % (Safety population, N = 4089): (81.8) % | Patients with at least 1 serious TEAE, % patients (Safety population, N = 4089): (30.6) % | Patients with at least 1 serious TEAE, n patients (Safety population, N = 4089): 1252 | Patients with at least 1 severe TEAE, % (Safety population, N = 4089): (19.7) % | Patients with at least 1 study drug-related TEAE leading to study drug withdrawal, % patients (Safety population, N = 4089): (3.4) % | Patients with at least 1 study drug-related TEAE leading to study drug withdrawal, n patients (Safety population, N = 4089): 139 | Patients with at least 1 study drug-related TEAE, % (Safety population, N = 4089): (12.6) % | Serious TEAE Leading to Death, % (Safety population, N = 4089): (2.3) % | Serious TEAE Leading to Withdrawal of Study Drug, % (Safety population, N = 4089): (2.2) % | Serious TEAE, % (Safety population, N = 4089): (30.6) % | Serious adverse event - Acute kidney injury, % patients (Safety population, N = 4089): (1.1) % | Serious adverse event - Acute kidney injury, n patients (Safety population, N = 4089): 47 | Serious adverse event - Acute respiratory failure, % patients (Safety population, N = 4089): (0.5) % | Serious adverse event - Acute respiratory failure, n patients (Safety population, N = 4089): 19 | Serious adverse event - Anemia, % patients (Safety population, N = 4089): (0.5) %
